Test results published in publication PMC11783601, “Analogue-Sensitive Inhibition of Histone Demethylases Uncovers Member-Specific Function in Ribosomal Protein Synthesis” (Journal of the American Chemical Society, 2025).
Entries after “also recorded” stand apart in the source; their conditions may differ.

System: nascent protein synthesis in HEK293T cells
Test: BONCAT: azidohomoalanine incorporation, TAMRA alkyne click, in-gel fluorescence
Format: cell-based, human
Text: Biochemical integrity and robust orthogonality of asKDM4-NOL pairs in cells strongly argue for their applicability in elucidating the regulatory functions of KDM4 members in cellular processes. […] To investigate the role of KDM4A in protein synthesis, we adapted the bioorthogonal noncanonical amino acid tagging (BONCAT) tactic which relies on the translational incorporation of an unnatural amino acid probe into newly synthesized proteins in cells (Figure 5A).[28] HEK293T cells expressing wild type KDM4A or its F185A mutant were treated with n-octyl IOX1 or 6A, and the synthesis of nascent proteins was tracked by pulsing the cells with azidohomoalanine (AHA). Isolated cellular extracts were subjected to copper-catalyzed click ligation with TAMRA alkyne,[50] separated on polyacrylamide gel and visualized at 532 nm light (lmax for TAMRA) to assess AHA incorporation. Overexpression of wild type KDM4A and the as variant (F185A) increased the amount of newly synthesized proteins compared to control vector-transfected cells (Figure 5B). […]
Millipore Ltd.) membrane was cut to size, activated with MeOH for 30 seconds and incubated in 10X SSC buffer for 5 minutes while shaking. The membrane was then placed on a 96-well Bio-Dot microfiltration apparatus (Bio-Rad), washed with 100µL of 10X SSC buffer and the RNA solution was applied, and vacuum filtered. Sample was then rinsed with 100µL of 10X SSC buffer.
The membrane was dried at 37 °C followed by crosslinking for 5 minutes with UV light at 254nm.
Membrane was then subject to the protocol mentioned in the section General Protocol for Western […]
16. Incorporation of Azidohomoalanine in HEK293T cells
HEK293T cells were passaged into a 6 well plate. The cells were grown overnight then transfected with 3 ug of indicated plasmid, KDM4A WT/F185A or KDM4D WT/F189A expression vector, […]
and 6 ug of Thermo Turbofect (FERR0531). KDM4A siRNA was transfected into cells using 10nM siRNA (Thermo 4392420) with 1:2 ug amount of Thermo Turbofect (FERR0531). Cells were washed 4 hours later and fresh DMEM was applied. The next day, the cells were treated with inhibitor (L-leucine NOG) and grown for 24 hours. […] The lysate was quantified with Bradford dye and 40 ug of lysate was incubated with 1 mM Tris[(1-benzyl-1H-1,2,3-triazol-4-yl)methyl]amine (TBTA […]
For analysis of AHA incorporation measured by fixed cell imaging, HEK293-T cells (ATCC CRL-1573) were grown in a 24 well plate (Corning) on poly-D-lysine (Gibco A3890401) treated glass coverslips (ThermoScientific 12-545-81P) overnight and transfected the next day with 500 ng KDM4A WT/F185A or Empty Vector (EV) equivalent using 1:2 ug of Thermo Turbofect (FERR0531). […]

Compound	nascent protein synthesis (TAMRA in-gel fluorescence) (HEK293T cells expressing F185A, 6A)	nascent protein synthesis (TAMRA in-gel fluorescence) (HEK293T cells, endogenous wild type KDM4A, 200 μM 6A)	nascent protein synthesis (TAMRA in-gel fluorescence) (HEK293T cells expressing wild type KDM4A, n-octyl IOX1)	nascent protein synthesis (TAMRA in-gel fluorescence) (HEK293T cells, endogenous KDM4A, 10 μM n-octyl IOX1)
CCCCCCCCOC(=O)C(=O)NC(CC(C)C)C(=O)O [6A, L-Leu octyl-ester NOG]	sharp decline in protein synthesis; also recorded: subsequently inhibited	no effect on protein synthesis; also recorded: failed to inhibit protein synthesis		
CCCCCCCCOC(=O)c1ccc(O)c2ncccc12 [n-octyl IOX1]			sharp decline in protein synthesis; also recorded: subsequently inhibited	protein synthesis inhibition
